IC50 data for 27 compounds are collected here from patent US20250282768A1 (Janssen Pharmaceutica NV, priority 2022, published 2025).

The test deals with p-IKKa levels in L363 (NIK translocated multiple myeloma) cells. The test is described as follows: Assay 2: Effect of compounds on p-IKKa levels in L363 (NIK translocated multiple myeloma) cells. The test is classed as cell-based. Particulars: Homo sapiens, L-363, 6 h, read-out: Assay 2 IC50 (nM), p-IKKa (Ser 176/180) in BAFF stimulated L363 cells with MG132, 6 h; average if tested more than once. In a few lines: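 L363 cells incubated overnight ± 250 ng/ml BAFF, then 6 h at 37 °C with compound (0.3% DMSO) ± 10 μM MG132. Lysates assayed for p-IKKa (Ser176/180) by AlphaLISA SureFire. IC50 from sigmoidal fit of % inhibition normalized to BAFF/MG132-stimulated and unstimulated controls.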
On to `CN1CC[C@@](O)(c2cc(-c3cccc(-c4ccnc(NCCF)n4)n3)no2)C1=O` [Example 364, (R)-3-(3-(6-(2-((2-Fluoroethyl)amino)pyrimidin-4-yl)pyridin-2-yl)isoxazol-5-yl)-3-hydroxy-1-methylpyrrolidin-2-one], for which the IC50 was in the range of 50 to 500 nM.

Consider `CN1CC[C@@](O)(c2cc(-c3cccc(-c4ccnc(NC5CCN(CC(F)F)C5)n4)n3)no2)C1=O` (stereo partly drawn) [Example 365, (3R)-3-(3-(6-(2-((1-(2,2-Difluoroethyl)pyrrolidin-3-yl)amino)pyrimidin-4-yl)pyridin-2-yl)isoxazol-5-yl)-3-hydroxy-1-methylpyrrolidin-2-one], for which the IC50 is more than 500 nM.

Regarding `COCC1CC(Nc2nccc(-c3cccc(-c4cc([C@]5(O)CCN(C)C5=O)on4)n3)n2)CO1` (stereo partly drawn) [Example 366, (3R)-3-Hydroxy-3-(3-(6-(2-((5-(methoxymethyl)tetrahydrofuran-3-yl)amino)pyrimidin-4-yl)pyridin-2-yl)isoxazol-5-yl)-1-methylpyrrolidin-2-one], the IC50 was 50 to 500 nM.

As for `CN1CC[C@@](O)(c2cc(-c3cccc(-c4ccnc(NCc5ccn(C)n5)n4)n3)no2)C1=O` [Example 367, (R)-3-Hydroxy-1-methyl-3-(3-(6-(2-(((1-methyl-1H-pyrazol-3-yl)methyl)amino)pyrimidin-4-yl)pyridin-2-yl)isoxazol-5-yl)pyrrolidin-2-one], the IC50 lay in the range of 50 to 500 nM.

On to `CN1CC[C@@](O)(c2cc(-c3cccc(-c4ccnc(NCc5cnn(C)c5)n4)n3)no2)C1=O` [Example 368, (R)-3-Hydroxy-1-methyl-3-(3-(6-(2-(((1-methyl-1H-pyrazol-4-yl)methyl)amino)pyrimidin-4-yl)pyridin-2-yl)isoxazol-5-yl)pyrrolidin-2-one], for which the IC50 lay in the range of 50 to 500 nM.

Regarding `C[C@@H](Nc1nccc(-c2cccc(-c3cc([C@]4(O)CCN(C)C4=O)on3)n2)n1)c1ncc[nH]1` [Example 369, (R)-3-(3-(6-(2-(((R)-1-(1H-Imidazol-2-yl)ethyl)amino)pyrimidin-4-yl)pyridin-2-yl)isoxazol-5-yl)-3-hydroxy-1-methylpyrrolidin-2-one], the IC50 is more than 500 nM.

As for `C[C@H](Nc1nccc(-c2cccc(-c3cc([C@]4(O)CCN(C)C4=O)on3)n2)n1)c1ncc[nH]1` [Example 370, (R)-3-(3-(6-(2-(((S)-1-(1H-Imidazol-2-yl)ethyl)amino)pyrimidin-4-yl)pyridin-2-yl)isoxazol-5-yl)-3-hydroxy-1-methylpyrrolidin-2-one], the IC50 is more than 500 nM.

For `CC(Nc1nccc(-c2cccc(-c3cc([C@]4(O)CCN(C)C4=O)on3)n2)n1)c1ncco1` (stereo partly drawn) [Example 371, (3R)-3-Hydroxy-1-methyl-3-(3-(6-(2-((1-(oxazol-2-yl)ethyl)amino)pyrimidin-4-yl)pyridin-2-yl)isoxazol-5-yl)pyrrolidin-2-one], the IC50 fell in the range of 50 to 500 nM.

`CC(Nc1nccc(-c2cccc(-c3cc([C@]4(O)CCN(C)C4=O)on3)n2)n1)c1cnco1` (stereo partly drawn) [Example 372, (3R)-3-Hydroxy-1-methyl-3-(3-(6-(2-((1-(oxazol-5-yl)ethyl)amino)pyrimidin-4-yl)pyridin-2-yl)isoxazol-5-yl)pyrrolidin-2-one]: the IC50 lay in the range of 50 to 500 nM.

`CC(Nc1nccc(-c2cccc(-c3cc([C@]4(O)CCN(C)C4=O)on3)n2)n1)c1cocn1` (stereo partly drawn) [Example 373, (3R)-3-Hydroxy-1-methyl-3-(3-(6-(2-((1-(oxazol-4-yl)ethyl)amino)pyrimidin-4-yl)pyridin-2-yl)isoxazol-5-yl)pyrrolidin-2-one]: the IC50 is 50 to 500 nM.

For the compound `C[C@H](Nc1nccc(-c2cccc(-c3cc([C@]4(O)CCN(C)C4=O)on3)n2)n1)c1cccnc1` [Example 374, (R)-3-Hydroxy-1-methyl-3-(3-(6-(2-(((S)-1-(pyridin-3-yl)ethyl)amino)pyrimidin-4-yl)pyridin-2-yl)isoxazol-5-yl)pyrrolidin-2-one], the IC50 lay within 50 to 500 nM.

In the case of `C[C@@H](Nc1nccc(-c2cccc(-c3cc([C@]4(O)CCN(C)C4=O)on3)n2)n1)c1cccnc1` [Example 375, (R)-3-Hydroxy-1-methyl-3-(3-(6-(2-(((R)-1-(pyridin-3-yl)ethyl)amino)pyrimidin-4-yl)pyridin-2-yl)isoxazol-5-yl)pyrrolidin-2-one], the IC50 fell in the range of 50 to 500 nM.

Take `C[C@H](Nc1nccc(-c2cccc(-c3cc([C@]4(O)CCN(C)C4=O)on3)n2)n1)c1ccccn1` [Example 376, (R)-3-Hydroxy-1-methyl-3-(3-(6-(2-(((S)-1-(pyridin-2-yl)ethyl)amino)pyrimidin-4-yl)pyridin-2-yl)isoxazol-5-yl)pyrrolidin-2-one]: the IC50 fell in the range of 50 to 500 nM.

For the compound `CC(Nc1nccc(-c2cccc(-c3cc([C@]4(O)CCN(C)C4=O)on3)n2)n1)c1ncccn1` (stereo partly drawn) [Example 377, (3R)-3-Hydroxy-1-methyl-3-(3-(6-(2-((1-(pyrimidin-2-yl)ethyl)amino)pyrimidin-4-yl)pyridin-2-yl)isoxazol-5-yl)pyrrolidin-2-one], the IC50 is more than 500 nM.

For the compound `CC(Nc1nccc(-c2cccc(-c3cc([C@]4(O)CCN(C)C4=O)on3)n2)n1)c1cn(C)cn1` (stereo partly drawn) [Example 378, (3R)-3-Hydroxy-1-methyl-3-(3-(6-(2-((1-(1-methyl-1H-imidazol-4-yl)ethyl)amino)pyrimidin-4-yl)pyridin-2-yl)isoxazol-5-yl)pyrrolidin-2-one], the IC50 lay in the range of 50 to 500 nM.

Turning to `Cc1cc(C(C)Nc2nccc(-c3cccc(-c4cc([C@]5(O)CCN(C)C5=O)on4)n3)n2)n[nH]1` (stereo partly drawn) [Example 379, (3R)-3-Hydroxy-1-methyl-3-(3-(6-(2-((1-(5-methyl-1H-pyrazol-3-yl)ethyl)amino)pyrimidin-4-yl)pyridin-2-yl)isoxazol-5-yl)pyrrolidin-2-one], the IC50 lay within 50 to 500 nM.

Turning to `Cc1cc([C@@H](C)Nc2nccc(-c3cccc(-c4cc([C@]5(O)CCN(C)C5=O)on4)n3)n2)no1` [Example 380, (R)-3-Hydroxy-1-methyl-3-(3-(6-(2-(((R)-1-(5-methylisoxazol-3-yl)ethyl)amino)pyrimidin-4-yl)pyridin-2-yl)isoxazol-5-yl)pyrrolidin-2-one], the IC50 was in the range of 50 to 500 nM.

`Cc1cnc(C(C)Nc2nccc(-c3cccc(-c4cc([C@]5(O)CCN(C)C5=O)on4)n3)n2)o1` (stereo partly drawn) [Example 381, (3R)-3-Hydroxy-1-methyl-3-(3-(6-(2-((1-(5-methyloxazol-2-yl)ethyl)amino)pyrimidin-4-yl)pyridin-2-yl)isoxazol-5-yl)pyrrolidin-2-one]: the IC50 was 50 to 500 nM.

As for `Cc1cc(C(C)Nc2nccc(-c3cccc(-c4cc([C@]5(O)CCN(C)C5=O)on4)n3)n2)on1` (stereo partly drawn) [Example 382, (3R)-3-Hydroxy-1-methyl-3-(3-(6-(2-((1-(3-methylisoxazol-5-yl)ethyl)amino)pyrimidin-4-yl)pyridin-2-yl)isoxazol-5-yl)pyrrolidin-2-one], the IC50 lay in the range of 50 to 500 nM.

With `C[C@@H](Nc1nccc(-c2cccc(-c3cc([C@]4(O)CCN(C)C4=O)on3)n2)n1)c1cnnn1C` [Example 383, (R)-3-Hydroxy-1-methyl-3-(3-(6-(2-(((R)-1-(1-methyl-1H-1,2,3-triazol-5-yl)ethyl)amino)pyrimidin-4-yl)pyridin-2-yl)isoxazol-5-yl)pyrrolidin-2-one], the IC50 lay in the range of 50 to 500 nM.

Take `C[C@H](Nc1nccc(-c2cccc(-c3cc([C@]4(O)CCN(C)C4=O)on3)n2)n1)c1cnnn1C` [Example 384, (R)-3-Hydroxy-1-methyl-3-(3-(6-(2-(((S)-1-(1-methyl-1H-1,2,3-triazol-5-yl)ethyl)amino)pyrimidin-4-yl)pyridin-2-yl)isoxazol-5-yl)pyrrolidin-2-one]: the IC50 was in the range of 50 to 500 nM.

Consider `Cc1nnc(C(C)Nc2nccc(-c3cccc(-c4cc([C@]5(O)CCN(C)C5=O)on4)n3)n2)o1` (stereo partly drawn) [Example 385, (3R)-3-Hydroxy-1-methyl-3-(3-(6-(2-((1-(5-methyl-1,3,4-oxadiazol-2-yl)ethyl)amino)pyrimidin-4-yl)pyridin-2-yl)isoxazol-5-yl)pyrrolidin-2-one], for which the IC50 was in the range of 50 to 500 nM.

In the case of `CN1CC[C@@](O)(c2cc(-c3cccc(-c4ccnc(N[C@H](CO)c5ccccc5)n4)n3)no2)C1=O` [Example 386, (R)-3-Hydroxy-3-(3-(6-(2-(((S)-2-hydroxy-1-phenylethyl)amino)pyrimidin-4-yl)pyridin-2-yl)isoxazol-5-yl)-1-methylpyrrolidin-2-one], the IC50 lay within 50 to 500 nM.

Take `CN1CC[C@@](O)(c2cc(-c3cccc(-c4ccnc(N[C@@H](CO)c5ccccn5)n4)n3)no2)C1=O` [Example 387, (R)-3-Hydroxy-3-(3-(6-(2-(((R)-2-hydroxy-1-(pyridin-2-yl)ethyl)amino)pyrimidin-4-yl)pyridin-2-yl)isoxazol-5-yl)-1-methylpyrrolidin-2-one]: the IC50 was more than 500 nM.

Regarding `CN1CC[C@@](O)(c2cc(-c3cccc(-c4ccnc(N[C@H](CO)c5ccccn5)n4)n3)no2)C1=O` [Example 388, (R)-3-Hydroxy-3-(3-(6-(2-(((S)-2-hydroxy-1-(pyridin-2-yl)ethyl)amino)pyrimidin-4-yl)pyridin-2-yl)isoxazol-5-yl)-1-methylpyrrolidin-2-one], the IC50 was in the range of 50 to 500 nM.

Take `CCC(Nc1nccc(-c2cccc(-c3cc([C@]4(O)CCN(C)C4=O)on3)n2)n1)c1ccn(C)n1` (stereo partly drawn) [Example 389, (3R)-3-Hydroxy-1-methyl-3-(3-(6-(2-((1-(1-methyl-1H-pyrazol-3-yl)propyl)amino)pyrimidin-4-yl)pyridin-2-yl)isoxazol-5-yl)pyrrolidin-2-one]: the IC50 fell in the range of 50 to 500 nM.

Take `CN1CC[C@@](O)(c2cc(-c3cccc(-c4ccnc(NC(c5ccccn5)C5CC5)n4)n3)no2)C1=O` (stereo partly drawn) [Example 390, (3R)-3-(3-(6-(2-((Cyclopropyl(pyridin-2-yl)methyl)amino)pyrimidin-4-yl)pyridin-2-yl)isoxazol-5-yl)-3-hydroxy-1-methylpyrrolidin-2-one]: the IC50 was more than 500 nM.
